Results from US20230181598A1, “FORMULATIONS AND METHODS OF TREATING COVID-19 AND PREVENTING INFECTION WITH SARS-CoV-2” (priority 2020, published 2023).
Converted amounts (≈) assume the structure as drawn. “And” between values parts separate entries of the source, which are not always exact repeats. Identical values can stand only once. Like-named read-outs stand apart in the source and are kept apart here.

Columns and labels:
[1] = test system: SARS-CoV-2 (strain USA-WA1/2020); test: microbe, parasite or virus in culture; type: cell-based; settings: for Average Log10 CCID50 virus per 0.2 mL: average of duplicate inserts; for Log10 Reduction in virus titer (CCID50) vs virus control / Log10 CCID50 virus per 0.2 mL: dNHBE cells
[2] = cited from earlier work
[3] = 0.1 μM, single insert, day 5 after infection

Structure (SMILES): CC#C[C@]1(O)CC[C@H]2[C@@H]3CCC4=CC(=O)CCC4=C3[C@@H](c3ccc(N(C)C)cc3)C[C@@]21C [Mifepristone, 11β-(4-dimethylaminophenyl)-17β-hydroxy-17α-(1-propynyl)-estra-4,9-dien-3-one]
- Average Log10 CCID50 virus per 0.2 mL ([1]; 5 μM, day 5): 3.5 Log10 CCID50 per 0.2 mL
- Log10 Reduction in virus titer (CCID50) vs virus control ([1]; 5 μM, day 5): 0.8 Log10
- Log10 Reduction in virus titer (CCID50) vs virus control ([1]; 5 μM, day 5, listed as mifepristone): ~1 Log10
- solubility ([2]; acidic media, pH 1.5): ~25 mg/mL (≈ 58.2 mM)
- solubility ([2]; pH values above 2.5): less than 1 mg/mL

Structure (SMILES): CCOC(=O)C1=C(COCCN)NC(C)=C(C(=O)OC)C1c1ccccc1Cl (racemic) [Amlodipine besylate, 3-Ethyl-5-methyl (±)-2-[(2-aminoethoxy)methyl]4-(2-chlorophenyl)-1,4-dihydro-6-methyl-3,5-pyridinedicarboxylate, monobenzenesulphonate]
- solubility in ethanol ([2]; ethanol): sparingly soluble
- solubility in water ([2]; water): slightly soluble

Structure (SMILES): CCOC(=O)C1=C(COCCN)NC(C)=C(C(=O)OC)C1c1ccccc1Cl (centres unmarked) [Amlodipine]
- Average Log10 CCID50 virus per 0.2 mL ([1]; 0.1 μM, day 5): 3.6 Log10 CCID50 per 0.2 mL
- Log10 Reduction in virus titer (CCID50) vs virus control ([1]; 0.1 μM, day 5): 0.7 Log10
- Log10 Reduction in virus titer (CCID50) vs virus control ([1]; 0.1 μM, day 5, listed as amlodipine): ~1 Log10
- Log10 CCID50 virus per 0.2 mL [1, 3]: 3.7 Log10 CCID50 per 0.2 mL and 3.5 Log10 CCID50 per 0.2 mL

Structure (SMILES): CCC(CC)COC(=O)[C@H](C)N[P@](=O)(OC[C@H]1O[C@@](C#N)(c2ccc3c(N)ncnn23)[C@H](O)[C@@H]1O)Oc1ccccc1 [Remdesivir]
- Log10 CCID50 virus per 0.2 mL ([1]; 0.001 μM, day 5): 4.0 Log10 CCID50 per 0.2 mL
- Log10 CCID50 virus per 0.2 mL ([1]; 0.01 μM, day 5): 3.3 Log10 CCID50 per 0.2 mL
- Log10 CCID50 virus per 0.2 mL [1, 3]: 2.7 Log10 CCID50 per 0.2 mL
- Log10 CCID50 virus per 0.2 mL ([1]; 1.0 μM, day 5): 2.0 Log10 CCID50 per 0.2 mL
- EC90 ([1]; Severe acute respiratory syndrome coronavirus 2, Vero 76): 9 nM
- EC90 ([1]; Severe acute respiratory syndrome coronavirus 2, Vero 76, 120 h, read-out: EC90 (concentration to reduce virus yield by 1 log10, regression analysis) (converted)): 9 nM
